The results in this text go back to patent US8865222B2, “Beta-casein assemblies for enrichment of food and beverages and methods of preparation thereof” (Technion Research and Development Foundation Ltd., priority 2008, dated 2014).

Common to all, as to format: physicochemical
Data set [1] in a line: Visual comparison of vitamin D solubilization, clarity and precipitation with and without beta-casein.
Data set [2] can be described thus: Vitamin D stability in aqueous solution, n-hexane extraction and Reversed Phase HPLC. The following applies: pH 7 and pH 2.5, room temperature. The method, then: We further tested the stability of vitamin D:beta-casein solutions in both acidic and neutral pH environments. The solutions prepared were left for a week at room temperature and the sampling was made once a day (in the first three days of the experiment) and once every two days (toward the end of the experiment). Vitamin D was extracted by n-hexane from each sample and its amount was analyzed using Reversed Phase HPLC. The amount of the vitamin left was compared to the amount extracted at time 0. The experiment was performed at two different pH values (pH 7 and pH 2.5).

Data set [3] in a line: Turbidity (solution absorbance at 600 nm). The following applies: vitamin D 82.5 μg/ml, in the absence of beta-casein, pH 7.0 and 2.5.

For the molecule `C=C1CC[C@H](O)C/C1=C/C=C1\CCC[C@]2(C)[C@@H]([C@H](C)/C=C/[C@H](C)C(C)C)CC[C@@H]12` [vitamin D, ergocalciferol], the precipitation result in data set [1] (PBS, in the absence of beta-casein, after a week) was “not observed”; in data set [1] (PBS, in the presence of beta-casein, after a week) it was “not observed”; in data set [1] (lactic acid buffer pH 2.5 with beta-casein 0.5% wt, molar ratio 2:1, after a week), “not observed”. Also, in data set [1] (lactic acid buffer pH 2.5, no beta-casein, after a week), the “aggregation out of solution” value is reported as “white precipitation”. In addition, the “vitamin D stability (amount left versus time 0)” value in data set [2] (in the presence of beta-casein, one week) is “degradation process is much slower”; in data set [2] (vitamin D alone, aqueous solution), “degrades rapidly leaving almost no trace after only two days”. Moreover, the turbidity result in data set [3] is reported as “sudden increase in turbidity value”.
